Results from patent US20200055839A1 (priority 2017, published 2020).

Tested on: NL-RLuc virus
Experiment: Inhibition of HIV replication (NL-RLuc virus, luciferase readout in MT-2 cells)
Type: cell-based
Conditions: MT-2 cells infected with NL-RLuc virus, 5 days of incubation, 10% FBS, at least 2 experiments
Method in brief: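 EC50 derived via median effect equation from at least 2 experiments, using luciferase expression as virus-growth readout. Replication-competent NL-RLuc reporter virus (nef partly replaced by Renilla luciferase) infected MT-2 cells with serial compound dilutions; 5-day incubation in RPMI 1640 plus 10% FBS.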

[1] = Human immunodeficiency virus 1, MT2, 120 h

Compound	EC50 [1]	EC50
Cc1nc(N)c(-c2cc(F)c(F)c(F)c2)c(N2CCC(C)(C)CC2)c1[C@H](OC(C)(C)C)C(=O)O [Example 58, (S)-2-(6-Amino-4-(4,4-dimethylpiperidin-1-yl)-2-methyl-5-(3,4,5-trifluorophenyl)pyridin-3-yl)-2-(tert-butoxy)acetic acid]	18 nM	–
Cc1ncc(-c2ccc(OCCc3c(F)cccc3Cl)cn2)c(N2CCC(C)(C)CC2)c1[C@H](OC(C)(C)C)C(=O)O [Example 305, (2S)-2-(tert-butoxy)-2-{5-[2-(2-chloro-6-fluorophenyl)ethoxy]-4′-(4,4-dimethylpiperidin-1-yl)-6′-methyl-[2,3′-bipyridine]-5′-yl}acetic acid]	1 nM	–
Cc1ncc(-c2ccc(OCCC(C)C)nc2)c(N2CCC(C)(C)CC2)c1[C@H](OC(C)(C)C)C(=O)O [Example 427, (S)-2-tert-Butoxy-2-(4-(4,4-dimethylpiperidin-1-yl)-6′-(isopentyloxy)-6-methyl-3, 3′-bipyridin-5-yl)acetic acid]	2 nM	–
COc1ccc(COc2ccc(-c3cnc(C)c([C@H](OC(C)(C)C)C(=O)O)c3N3CCC(C)(C)CC3)nc2)c(OC)c1 [Example 358, (2S)-2-(tert-butoxy)-2-{5-[(2,4-dimethoxyphenyl)methoxy]-4′-(4,4-dimethylpiperidin-1-yl)-6′-methyl-[2,3′-bipyridine]-5′-yl}acetic acid]	1.2 nM	–
Cc1nc(-c2ccn(C)n2)c(-c2ccc(OCCc3ccc(F)cc3)cc2)c(N2CCC(C)(C)CC2)c1[C@H](OC(C)(C)C)C(=O)O [Example 46, (S)-2-(tert-Butoxy)-2-(4-(4,4-dimethylpiperidin-1-yl)-5-(4-(4-fluorophenethoxy)phenyl)-2-methyl-6-(1-methyl-1H-pyrazol-3-yl)pyridin-3-yl)acetic acid]	4 nM	–
COc1ccc(CCOc2ncc(-c3cnc(C)c([C@H](OC(C)(C)C)C(=O)O)c3N3CCC(C)(C)CC3)cc2F)c(C)c1 [Example 399, (2S)-2-(tert-butoxy)-2-[4-(4,4-dimethylpiperidin-1-yl)-5′-fluoro-6′-[2-(4-methoxy-2-methylphenyl)ethoxy]-6-methyl-[3,3′-bipyridine]-5-yl]acetic acid]	2 nM	–
Cc1nc(Nc2cncnc2)c(-c2ccc(OCCc3ccc(F)cc3)cc2)c(N2CCC(C)(C)CC2)c1[C@H](OC(C)(C)C)C(=O)O [Example 66, (S)-2-(tert-Butoxy)-2-(4-(4,4-dimethylpiperidin-1-yl)-5-(4-(4-fluorophenethoxy)phenyl)-2-methyl-6-(pyrimidin-5-ylamino)pyridin-3-yl)acetic acid]	2 nM	–
COc1ccccc1-c1cnc(C)c([C@H](OC(C)(C)C)C(=O)O)c1N1CCC(C)(C)CC1 [Example 167, (2S)-2-(tert-Butoxy)-2-[4-(4,4-dimethylpiperidin-1-yl)-5-(2-methoxyphenyl)-2-methylpyridin-3-yl]acetic acid]	5 nM	–
Cc1ncc(-c2ccc(OCCc3ccccc3F)cc2)c(N2CCC(C)(C)CC2)c1[C@H](OC(C)(C)C)C(=O)O [Example 259, (S)-2-(tert-Butoxy)-2-(4-(4,4-dimethylpiperidin-1-yl)-5-(4-(2-fluorophenethoxy)phenyl)-2-methylpyridin-3-yl)acetic acid]	1 nM	–
Cc1ncc(-c2ccc(OCc3ccccc3F)cn2)c(N2CCC(C)(C)CC2)c1[C@H](OC(C)(C)C)C(=O)O [Example 348, (2S)-2-(tert-butoxy)-2-[4′-(4,4-dimethylpiperidin-1-yl)-5-[(2-fluorophenyl)methoxy]-6′-methyl-[2,3′-bipyridine]-5′-yl]acetic acid]	0.6 nM	–
Cc1ncc(-c2ccc(OCCc3ccc(F)cc3)nc2F)c(N2CCC(C)(C)CC2)c1[C@H](OC(C)(C)C)C(=O)O (single isomer, unassigned) [Example 263]	3 nM	–
Cc1ncc(-c2ccc(OCCc3cccc(Cl)c3F)cn2)c(N2CCC(C)(C)CC2)c1[C@H](OC(C)(C)C)C(=O)O [Example 354, (2S)-2-(tert-butoxy)-2-{5-[2-(3-chloro-2-fluorophenyl)ethoxy]-4′-(4,4-dimethylpiperidin-1-yl)-6′-methyl-[2,3′-bipyridine]-5′-yl}acetic acid]	0.5 nM	–
Cc1cccc(Cl)c1COc1ccc(-c2cnc(C)c([C@H](OC(C)(C)C)C(=O)O)c2N2CCC(C)(C)CC2)nc1 [Example 283, (S)-2-(tert-Butoxy)-2-(5-((2-chloro-6-methylbenzyl)oxy)-4′-(4,4-dimethylpiperidin-1-yl)-6′-methyl-[2, 3′-bipyridin]-5′-yl)acetic acid]	3 nM	–
Cc1ncc(-c2ccc(C(F)(F)F)c(F)c2F)c(N2CCC(C)(C)CC2)c1[C@H](OC(C)(C)C)C(=O)O [Example 172, (2S)-2-(tert-Butoxy)-2-{5-[2,3-difluoro-4-(trifluoromethyl)phenyl]-4-(4,4-dimethylpiperidin-1-yl)-2-methylpyridin-3-yl}acetic acid]	14 nM	–
Cc1nc(NC2CCN(S(C)(=O)=O)CC2)c(-c2ccc(OCCc3ccc(F)cc3)cc2)c(N2CCC(C)(C)CC2)c1[C@H](OC(C)(C)C)C(=O)O [Example 99, (S)-2-(tert-Butoxy)-2-(4-(4,4-dimethylpiperidin-1-yl)-5-(4-(4-fluorophenethoxy)phenyl)-2-methyl-6-((1-(methylsulfonyl)piperidin-4-yl)amino)pyridin-3-yl)acetic acid]	0.6 nM	–
Cc1ncc(-c2ccc(OCCc3c(Cl)cccc3Cl)cn2)c(N2CCC(C)(C)CC2)c1[C@H](OC(C)(C)C)C(=O)O [Example 297, (2S)-2-(tert-butoxy)-2-{5-[2-(2,6-dichlorophenyl)ethoxy]-4′-(4,4-dimethylpiperidin-1-yl)-6′-methyl-[2,3′-bipyridine]-5′-yl}acetic acid]	1 nM	–
CCC(C)(C)O[C@H](C(=O)O)c1c(C)ncc(-c2ccc(OCCc3ccc(F)cc3)cc2)c1N1CCC(C)(C)CC1 [Example 18, (2S)-2-[4-(4,4-Dimethylpiperidin-1-yl)-5-{4-[2-(4-fluorophenyl)ethoxy]phenyl}-2-methylpyridin-3-yl]-2-[(2-methylbutan-2-yl)oxy]acetic acid]	4 nM	–
Cc1ncc(-c2cc(F)c(CNc3ncnc4c3oc3ccccc34)c(F)c2)c(N2CCC(C)(C)CC2)c1[C@H](OC(C)(C)C)C(=O)O [Example 219, (S)-2-(5-(4-((Benzofuro[3,2-d]pyrimidin-4-ylamino)methyl)-3,5-difluorophenyl)-4-(4,4-dimethylpiperidin-1-yl)-2-methylpyridin-3-yl)-2-(tert-butoxy)acetic acid]	2 nM	–
CC1(C)CCN(c2c(-c3ccc(OCCc4ccc(F)cc4)c(F)c3)c(N)nc(Cl)c2[C@H](OC(C)(C)C)C(=O)O)CC1 [Example 209, (S)-2-(6-Amino-2-chloro-4-(4,4-dimethylpiperidin-1-yl)-5-(3-fluoro-4-(4-fluorophenethoxy)phenyl)pyridin-3-yl)-2-(tert-butoxy)acetic acid]	4 nM	–
Cc1nc(C(C)(C)O)c(-c2ccc(OCCc3ccc(F)cc3)c(F)c2)c(N2CCC(C)(C)CC2)c1[C@H](OC(C)(C)C)C(=O)O (single isomer, unassigned) [Example 243]	–	7 nM
Cc1nc(OCC(C)C)ccc1-c1cnc(C)c([C@H](OC(C)(C)C)C(=O)O)c1N1CCC(C)(C)CC1 [Example 418, (S)-2-(tert-Butoxy)-2-(4-(4,4-dimethylpiperidin-1-yl)-6′-isobutoxy-2′,6-dimethyl-[3, 3′-bipyridin]-5-yl)acetic acid]	107 nM	–
